From ChEMBL document CHEMBL5149967, “Chemical Highlights Supporting the Role of Lipid A in Efficient Biological Adaptation of Gram-Negative Bacteria to External Stresses” (J Med Chem, 2021) come the findings set out here.

Molecules are shown by their SMILES. In brackets after ≈: the same amount, converted by molar mass. Residues, ends and D or L forms follow the SMILES beside them. Some results are limits rather than exact numbers.

Test [1] deals with Escherichia coli. Briefly: Antibacterial activity against Escherichia coli Delta tolC assessed as bacterial growth inhibition. Type of test: functional, organism-based.
A short description of test [2]: Inhibition of Escherichia coli Delta tolC LpxD.
Test [3] in a line: Inhibition of bacterial LpxD. Details: species or system Bacteria.
Test [4] has as its system Escherichia coli. Nature of the test: Antibacterial activity against Escherichia coli TolC minus assessed as bacterial growth inhibition. In kind it is functional, organism-based.
Test [5] has as its system Escherichia coli. Nature of the test: Antibacterial activity against Escherichia coli Delta tolC expressing Plac/LpxD assessed as bacterial growth inhibition. In kind it is functional.
For test [6], the system named is Escherichia coli. Nature of the test: Antibacterial activity against Escherichia coli assessed as bacterial growth inhibition. Type of test: functional.
The nature of test [7]: Inhibition of Klebsiella pneumoniae LpxH.
Test [8] deals with Escherichia coli. Nature of the test: Antibacterial activity against Escherichia coli ATCC 25922 assessed as bacterial growth inhibition. In kind it is functional, organism-based.
Test [9] in a line: Inhibition of Escherichia coli LpxH.
Test [10] is described as follows: Inhibition of mCherry-fused bacterial LpxH assessed as inhibition of UDP-DAG conversion by luminescence based assay. The arrangement: species or system Bacteria.
Test [11] has as its system Klebsiella pneumoniae. Briefly: Antibacterial activity against Klebsiella pneumoniae assessed as bacterial growth inhibition. In kind it is functional.
Test [12] has as its system Escherichia coli. Nature of the test: Inhibition of Escherichia coli LpxH at 1 uM relative to control.

As a reminder, the MIC is the least concentration at which growth counts as inhibited. For orientation: IC50 means the midpoint of a concentration-inhibition curve. One may read the inhibition as the relative decrease from the control value, in per cent. Low readings indicate a weak effect, high ones a strong effect.

Turning to `CC1(C)CC(=O)C2=C(C1)Nc1nn(-c3ccccc3)c(O)c1C2c1ccccc1Cl` (stereo not drawn), in test [1], the MIC was found to be 3.13 µg/mL (≈ 7.45 µM). The half-inhibitory concentration (IC50) in test [2] was 3200 nM.
With `CSCC[C@H](NC(=O)[C@H](Cc1ccccc1)NC(=O)[C@H](CC(N)=O)NC(=O)[C@H](CC(N)=O)NC(=O)[C@H](CCC(=O)O)NC(=O)[C@@H](N)CO)C(=O)N[C@@H](CC(C)C)C(=O)N1CCC[C@H]1C(=O)N[C@@H](CC(C)C)C(=O)N[C@@H](CC(C)C)C(=O)N1CCC[C@H]1C(=O)N[C@@H](CC(C)C)C(N)=O` (H-SENNFMLPLLPL-NH2), the half-inhibitory concentration (IC50) in test [3] is 3200 nM; in [4], 3130 nM.
`CC1(C)CC(=O)C2C(=Nc3nn(-c4ccccc4)c(O)c3C2c2ccccc2Cl)C1` (stereo not drawn): the minimum inhibitory concentration (MIC) is 8 µg/mL (≈ 19.1 µM) in test [5], 1 µg/mL (≈ 2.38 µM) in [1] and 128 µg/mL (≈ 305 µM) in test [6].
For `O=CN1CCc2cc(S(=O)(=O)N3CCN(c4cccc(C(F)(F)F)c4)CC3)ccc21`, the values for the 50% inhibitory concentration (IC50) in test [7], in test [9] and in [10] were 360 nM, 140 nM and 1200 nM, respectively. In addition, the MIC in test [8] and in [11] was > 64 µg/mL each time. For the same compound, the inhibition in test [12] was 45%.
